We go through four molecules from patent US12173018B2, “Penicillin-binding protein inhibitors” (priority 2018, dated 2024).

Assay [1] concerns K. pneumoniae 848844. Kind of assay: microbe, parasite or virus in culture. Type of assay: cell-based, Klebsiella pneumoniae. As to conditions: Klebsiella pneumoniae; K. pneumoniae 848844 producing SHV-11 and KPC-2; read-out: MIC K. pneumoniae 848844. The method in brief:
(§1)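 Following CLSI guidance, growth inhibition is measured in Mueller-Hinton broth with divalent cations. Inoculum 5×10^5 CFU/mL; incubation 16-20 hours, 37° C; endpoint is visual absence of growth.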

In assay [2] the test system is E. coli AG100. Put plainly: Broth microdilution MIC, E. coli AG100 (wild-type parent). As to conditions: Escherichia coli; wild-type parent E. coli AG100, broth microdilution; read-out: MIC E. coli AG100. Type of assay: cell-based. The procedure, abridged:
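Starting inoculum of 5×10^5 CFU/mL, from colonies grown 3-5 h in Mueller-Hinton broth with divalent cations, added to two-fold compound dilution series.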
(Dilution methods test growth across graded concentrations, often in twofold steps.)

The test system of assay [3] is E. coli ATCC 25922. Kind of assay: Broth microdilution MIC, E. coli ATCC 25922. Type of assay: cell-based. To be noted: Escherichia coli. The method in brief: as §1
In assay [4] the test system is N. gonorrhoeae FA1090. Put plainly: Liquid broth MIC, N. gonorrhoeae FA1090. Type of assay: cell-based. To be noted: Neisseria gonorrhoeae. The procedure, abridged: (§2)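 Colonies sub-cultured 24 h earlier on supplemented GC agar are suspended in broth, adjusted by optical density at 600 nm and added to 2-fold serial compound dilutions at 5×10^5 CFU/mL. Plates incubate 40-42 hours at 36° C with 5% CO2 before visual MIC reading.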

Assay [5] has as its system N. gonorrhoeae ATCC 49226. Kind of assay: Liquid broth MIC, N. gonorrhoeae ATCC 49226. Type of assay: cell-based. As to conditions: Neisseria gonorrhoeae. The procedure, abridged: as §2
Assay [6] has as its system N. gonorrhoeae WHO F. Put plainly: Liquid broth MIC, N. gonorrhoeae WHO F. It counts as cell-based. To be noted: Neisseria gonorrhoeae, read-out: Minimum Inhibitory Concentration, N. gonorrhoeae WHO F. The procedure, abridged: as §2
The mark [7] stands for this setting: ATCC25922, E. coli ATCC 25922, broth microdilution, read-out: MIC E. coli 25922.
[8] abbreviates: N. gonorrhoeae FA1090, liquid broth, read-out: Minimum Inhibitory Concentration, N. gonorrhoeae FA1090.
Setting [9] is: ATCC49226, N. gonorrhoeae ATCC 49226, liquid broth, read-out: Minimum Inhibitory Concentration, N. gonorrhoeae ATCC 49226.
Where [10] appears, read: N. gonorrhoeae WHO F, liquid broth.

Converted amounts (≈) assume the structure as drawn. Like-named read-outs stand apart in the source and are kept apart here.

For `CCN1CCN(C(=O)N[C@@H](C(=O)N[C@H]2Cc3cccc(C(=O)O)c3OB2O)c2ncc(O)cc2F)C(=O)C1=O` [Example 177, (R)-3-((R)-2-(4-ethyl-2,3-dioxopiperazine-1-carboxamido)-2-(3-fluoro-5-hydroxypyridin-2-yl)acetamido)-2-hydroxy-3,4-dihydro-2H-benzo[e][1,2]oxaborinine-8-carboxylic acid], the MIC in assay [1] is 32 to 64 µg/mL; in assay [2] it was 8 to 16 µg/mL; in assay [3] (setting [7]), 8 to 16 µg/mL; in assay [4] (setting [8]), < 0.125 µg/mL; in assay [5] (setting [9]), 4 to 8 µg/mL (≈ 7.36 to 14.7 µM); in assay [6] (setting [10]) it was < 0.125 µg/mL.
With `NS(=O)(=O)c1ccc(C(NC(=O)N2CCN(CCF)C(=O)C2=O)C(=O)N[C@H]2Cc3cccc(C(=O)O)c3OB2O)c(F)c1` (stereo partly drawn) [Example 204, (3R)-3-(2-(2-fluoro-4-sulfamoylphenyl)-2-(4-(2-fluoroethyl)-2,3-dioxopiperazine-1-carboxamido)acetamido)-2-hydroxy-3,4-dihydro-2H-benzo[e][1,2]oxaborinine-8-carboxylic acid], the MIC in assay [1] was > 128 µg/mL; in assay [2], 32 to 64 µg/mL; in assay [3] (setting [7]), 32 to 64 µg/mL; in assay [4] (setting [8]), 0.25 to 0.5 µg/mL (≈ 0.401 to 0.802 µM); in assay [5] (setting [9]) it was 1 to 2 µg/mL (≈ 1.6 to 3.21 µM); in assay [6] (setting [10]), 0.25 to 0.5 µg/mL (≈ 0.401 to 0.802 µM).
`CCN1C[C@H](CO)N(C(=O)NC(C(=O)N[C@H]2Cc3cccc(C(=O)O)c3OB2O)c2ncc(O)cc2F)C(=O)C1=O` (stereo partly drawn) [Example 234, (3R)-3-(2-((R)-4-ethyl-6-(hydroxymethyl)-2,3-dioxopiperazine-1-carboxamido)-2-(3-fluoro-5-hydroxypyridin-2-yl)acetamido)-2-hydroxy-3,4-dihydro-2H-benzo[e][1,2]oxaborinine-8-carboxylic acid]: the MIC in assay [1] is > 128 µg/mL; in assay [2], > 128 µg/mL; in assay [3] (ATCC25922, read-out: MIC E. coli 25922), > 128 µg/mL; in assay [4] (FA1090, read-out: Minimum Inhibitory Concentration, N. gonorrhoeae FA1090), 0.25 to 0.5 µg/mL (≈ 0.436 to 0.872 µM); in assay [5] (ATCC49226, read-out: Minimum Inhibitory Concentration, N. gonorrhoeae ATCC 49226), 16 to 32 µg/mL (≈ 27.9 to 55.8 µM); in assay [6], 0.25 to 0.5 µg/mL (≈ 0.436 to 0.872 µM).
Consider `NCCN1CCN(C(=O)N[C@@H](C(=O)N[C@H]2Cc3ccc(F)c(C(=O)O)c3OB2O)c2ncc(O)cc2F)C(=O)C1=O` [Example 230, (R)-3-((R)-2-(4-(2-aminoethyl)-2,3-dioxopiperazine-1-carboxamido)-2-(3-fluoro-5-hydroxypyridin-2-yl)acetamido)-7-fluoro-2-hydroxy-3,4-dihydro-2H-benzo[e][1,2]oxaborinine-8-carboxylic acid], for which the MIC fell in the range of 32 to 64 µg/mL in assay [1]; 8 to 16 µg/mL in assay [2]; 8 to 16 µg/mL in assay [3] (setting [7]); 1 to 2 µg/mL (≈ 1.74 to 3.47 µM) in assay [4] (setting [8]); 4 to 8 µg/mL (≈ 6.94 to 13.9 µM) in assay [5] (setting [9]); 0.25 to 0.5 µg/mL (≈ 0.434 to 0.868 µM) in assay [6] (setting [10]).
